Each compound was assayed against TrkA (Homo sapiens (Human), UniProt P04629) (assay: TrkA Omnia Assay). Settings: averaged IC50; 20 nM enzyme, 500 μM ATP, 10 μM peptide substrate.
Assay type: biochemical
In short: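 Continuous fluorescent kinase read-out (ex 360 nm, em 485 nm) over 70 min, with initial rates fitted to 4- or 5-parameter logistic curves for IC50. Final conditions: 500 μM ATP, 10 μM Omnia Tyr Peptide #4, 20 nM TrkA, MOPS pH 7.5 buffer with MgCl2 and Triton X-100; enzyme and compound preincubated 10 min at ambient temperature.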

Sequence of TrkA (P04629 33-796): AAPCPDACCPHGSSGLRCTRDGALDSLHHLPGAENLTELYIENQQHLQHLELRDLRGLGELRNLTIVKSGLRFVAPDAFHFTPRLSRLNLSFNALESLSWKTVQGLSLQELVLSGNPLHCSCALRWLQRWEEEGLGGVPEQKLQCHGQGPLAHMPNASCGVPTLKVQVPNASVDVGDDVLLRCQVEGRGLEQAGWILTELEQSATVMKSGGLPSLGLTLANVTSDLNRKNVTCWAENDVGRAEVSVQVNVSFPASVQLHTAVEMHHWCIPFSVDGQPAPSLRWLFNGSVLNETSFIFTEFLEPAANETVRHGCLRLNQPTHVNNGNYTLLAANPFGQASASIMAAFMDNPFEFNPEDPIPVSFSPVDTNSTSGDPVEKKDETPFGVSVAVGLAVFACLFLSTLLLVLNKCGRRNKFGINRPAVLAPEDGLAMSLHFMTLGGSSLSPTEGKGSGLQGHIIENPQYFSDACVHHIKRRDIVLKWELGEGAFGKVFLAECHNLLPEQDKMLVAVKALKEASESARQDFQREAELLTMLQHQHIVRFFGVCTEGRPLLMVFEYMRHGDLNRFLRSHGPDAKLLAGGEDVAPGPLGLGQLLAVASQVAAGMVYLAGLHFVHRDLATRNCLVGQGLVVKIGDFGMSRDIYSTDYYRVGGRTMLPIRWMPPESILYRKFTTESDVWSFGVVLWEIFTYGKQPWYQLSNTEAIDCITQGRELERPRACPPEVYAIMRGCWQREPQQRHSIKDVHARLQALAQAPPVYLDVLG

Compound | IC50 [µM]
Cc1c(OC[C@H]2COC(C)(C)O2)nn(-c2ccccc2)c1NC(=O)N[C@H]1CN(CC(F)(F)F)C[C@@H]1c1ccccc1 [Example 271, 1-(3-(((S)-2,2-dimethyl-1,3-dioxolan-4-yl)methoxy)-4-methyl-1-phenyl-1H-pyrazol-5-yl)-3-((3R,4S)-4-phenyl-1-(2,2,2-trifluoroethyl)pyrrolidin-3-yl)urea] | < 0.1
Cc1c(OC[C@H](O)CO)nn(-c2ccccc2)c1NC(=O)N[C@H]1CN(CC(F)(F)F)C[C@@H]1c1ccccc1 [Example 272, 1-(3-((R)-2,3-dihydroxvpropoxy)-4-methyl-1-phenyl-1H-pyrazol-5-yl)-3-((3R,4S)-4-phenyl-1-(2,2,2-trifluoroethyl)pyrrolidin-3-yl)urea] | < 0.1
C[C@@H]1C(NC(=O)Nc2c3c(nn2-c2ccccc2)CCC3)[C@H](c2ccccc2)CN1CC(F)(F)F (stereo partly drawn) [Example 273, (R,S)1-((2α,3β,4α)-2-methyl-4-phenyl-1-(2,2,2-trifluoroethyl)pyrrolidin-3-yl)-3-(2-phenyl-2,4,5,6-tetrahydrocyclopenta[c]pyrazol-3-yl)urea] | 0.1 to 1
C[C@H]1[C@@H](c2ccccc2)C(NC(=O)Nc2c3c(nn2-c2ccccc2)CCC3)CN1CC(F)(F)F (stereo partly drawn) [Example 274, (R,S)-1-((3β,4α,5α)-5-methyl-4-phenyl-1-(2,2,2-trifluoroethyl)pyrrolidin-3-yl)-3-(2-phenyl-2,4,5,6-tetrahydrocyclopenta[c]pyrazol-3-yl)urea] | 0.1 to 1
CCOc1nn(-c2ccccc2)c(NC(=O)N[C@@H]2CN([C@@H](CO)C(F)(F)F)C[C@H]2c2ccc(F)c(F)c2)c1C [Example 275, 1-((3S,4R)-4-(3,4-difluorophenyl)-1-((S)-1,1,1-trifluoro-3-hydroxypropan-2-yl)pyrrolidin-3-yl)-3-(3-ethoxv-4-methyl-1-phenyl-1H-pyrazol-5-yl)urea] | 0.1 to 1
CCOc1nn(-c2ccccc2)c(NC(=O)N[C@@H]2CN([C@@H](COC)C(F)(F)F)C[C@H]2c2ccc(F)c(F)c2)c1C [Example 276, 1-((3S,4R)-4-(3,4-difluorophenyl)-1-((S)-1,1,1-trifluoro-3-methoxypropan-2-yl)pyrrolidin-3-yl)-3-(3-ethoxv-4-methyl-1-phenyl-1H-pyrazol-5-yl)urea] | < 0.1
COC[C@H](N1C[C@@H](NC(=O)Nc2c(C)c(OC[C@H](C)O)nn2-c2ccccc2)[C@H](c2ccc(F)c(F)c2)C1)C(F)(F)F [Example 277, 1-((3S,4R)-4-(3,4-difluorophenyl)-1-((S)-1,1,1-trifluoro-3-methoxypropan-2-yl)pyrrolidin-3-yl)-3-(3-((S)-2-hydroxypropoxy)-4-methyl-1-phenyl-1H-pyrazol-5-yl)urea] | < 0.1
COC[C@@H](N1C[C@@H](NC(=O)Nc2c(Cl)c(-c3cnn(C)c3)nn2-c2ccccc2)[C@H](c2ccc(F)c(F)c2)C1)C(F)(F)F [Example 278, 1-(4-chloro-1′-methyl-1-phenyl-1H, 1′H-3,4′-bipyrazol-5-yl)-3-((3S,4R)-4-(3,4-difluorophenyl)-1-((R)-1,1,1-trifluoro-3-methoxypropan-2-yl)pyrrolidin-3-yl)urea] | < 0.1
COC[C@@H](N1C[C@@H](NC(=O)Nc2c(C)c(OC[C@H](C)O)nn2-c2ccccc2)[C@H](c2ccc(F)c(F)c2)C1)C(F)(F)F [Example 279, 1-((3S,4R)-4-(3,4-difluorophenyl)-1-((R)-1,1,1-trifluoro-3-methoxypropan-2-yl)pyrrolidin-3-yl)-3-(3-((S)-2-hydroxypropoxy)-4-methyl-1-phenyl-1H-pyrazol-5-yl)urea] | 0.1 to 1
COCCCc1nn(-c2ccccc2)c(NC(=O)N[C@@H]2CN(CCOC)C[C@H]2c2cc(F)cc(F)c2)c1C [Example 281, 1-((3S,4R)-4-(3,5-difluorophenyl)-1-(2-methoxyethyl)pyrrolidin-3-yl)-3-(3-(3-methoxypropyl)-4-methyl-1-phenyl-1H-pyrazol-5-yl)urea] | < 0.1
COCCN1C[C@@H](NC(=O)Nc2c(C)c(C(F)(F)CO)nn2-c2ccccc2)[C@H](c2ccc(F)c(F)c2)C1 [Example 282, 1-(3-(1,1-difluoro-2-hydroxyethyl)-4-methyl-1-phenyl-1H-pyrazol-5-yl)-3-((3S,4R)-4-(3,4-difluorophenyl)-1-(2-methoxyethyl)pyrrolidin-3-yl)urea] | < 0.1
COCCN1C[C@@H](NC(=O)Nc2c(C)c(C(F)(F)CO)nn2-c2ccccc2)[C@H](c2cc(F)cc(F)c2)C1 [Example 283, 1-(3-(1,1-difluoro-2-hydroxyethyl)-4-methyl-1-phenyl-1H-pyrazol-5-yl)-3-((3S,4R)-4-(3,5-difluorophenyl)-1-(2-methoxyethyl)pyrrolidin-3-yl)urea] | < 0.1
COCCN1C[C@@H](NC(=O)Nc2c(C)c(C(F)(F)CO)nn2-c2ccccc2)[C@H](c2ccc(F)cc2)C1 [Example 284, 1-(3-(1,1-difluoro-2-hydroxyethyl)-4-methyl-1-phenyl-1H-pyrazol-5-yl)-3-((3S,4R)-4-(4-fluorophenyl)-1-(2-methoxyethyl)pyrrolidin-3-yl)urea] | < 0.1
COCCN1C[C@@H](NC(=O)Nc2cc(C(F)(F)CO)nn2-c2ccccc2)[C@H](c2ccc(F)c(F)c2)C1 [Example 285, 1-(3-(1,1-difluoro-2-hydroxyethyl)-1-phenyl-1H-pyrazol-5-yl)-3-((3S,4R)-4-(3,4-difluorophenyl)-1-(2-methoxyethyl)pyrrolidin-3-yl)urea] | < 0.1
COCCN1C[C@@H](NC(=O)Nc2c(C)c(CCO)nn2-c2ccccc2)[C@H](c2cc(F)cc(F)c2)C1 [Example 286, 1-((3S,4R)-4-(3,5-difluorophenyl)-1-(2-methoxyethyl)pyrrolidin-3-yl)-3-(3-(2-hydroxyethyl)-4-methyl-1-phenyl-1H-pyrazol-5-yl)urea] | < 0.1
COCCN1C[C@@H](NC(=O)Nc2c(C)c(CCO)nn2-c2ccccc2)[C@H](c2ccc(F)cc2)C1 [Example 287, 1-((3S,4R)-4-(4-fluorophenyl)-1-(2-methoxyethyl)pyrrolidin-3-yl)-3-(3-(2-hydroxyethyl)-4-methyl-1-phenyl-1H-pyrazol-5-yl)urea] | < 0.1
COCCN1C[C@@H](NC(=O)Nc2c(C)c(CC(C)(C)O)nn2-c2ccccc2)[C@H](c2ccc(F)c(F)c2)C1 [Example 288, 1-((3S,4R)-4-(3,4-difluorophenyl)-1-(2-methoxyethyl)pyrrolidin-3-yl)-3-(3-(2-hydroxy-2-methylpropyl)-4-methyl-1-phenyl-1H-pyrazol-5-yl)urea] | < 0.1
COCCN1C[C@@H](NC(=O)Nc2c(C)c(C[C@H](C)O)nn2-c2ccccc2)[C@H](c2ccc(F)c(F)c2)C1 [Example 289, 1-((3S,4R)-4-(3,4-difluorophenyl)-1-(2-methoxyethyl)pyrrolidin-3-yl)-3-(3-((S)-2-hydroxypropyl)-4-methyl-1-phenyl-1H-pyrazol-5-yl)urea] | < 0.1
COCCN1C[C@@H](NC(=O)Nc2c(C)c(C[C@@H](C)O)nn2-c2ccccc2)[C@H](c2ccc(F)c(F)c2)C1 [Example 290, 1-((3S,4R)-4-(3,4-difluorophenyl)-1-(2-methoxyethyl)pyrrolidin-3-yl)-3-(3-((R)-2-hydroxypropyl)-4-methyl-1-phenyl-1H-pyrazol-5-yl)urea] | < 0.1
CCOC(=O)c1nn(-c2ccccc2)c(NC(=O)N[C@@H]2CN(CCOC)C[C@H]2c2ccc(F)c(F)c2)c1C [Example 291, ethyl 5-(3-((3S,4R)-4-(3,4-difluorophenyl)-1-(2-methoxyethyl)pyrrolidin-3-yl)ureido)-4-methyl-1-phenyl-1H-pyrazole-3-carboxylate] | < 0.1
CNC(=O)c1nn(-c2ccccc2)c(NC(=O)N[C@@H]2CN(CCOC)C[C@H]2c2ccc(F)cc2)c1C [Example 292, 5-(3-((3S,4R)-4-(4-fluorophenyl)-1-(2-methoxyethyl)pyrrolidin-3-yl)ureido)-N,4-dimethyl-1-phenyl-1H-pyrazole-3-carboxamide] | < 0.1
COCCN1C[C@@H](NC(=O)Nc2c(C)c(-c3nnc(C)o3)nn2-c2ccccc2)[C@H](c2ccc(F)c(F)c2)C1 [Example 297, 1-((3S,4R)-4-(3,4-difluorophenyl)-1-(2-methoxyethyl)pyrrolidin-3-yl)-3-(4-methyl-3-(5-methyl-1,3,4-oxadiazol-2-yl)-1-phenyl-1H-pyrazol-5-yl)urea] | < 0.1
COCCN1C[C@@H](NC(=O)Nc2c(C)c(-c3nc(C)no3)nn2-c2ccccc2)[C@H](c2ccc(F)c(F)c2)C1 [Example 298, 1-((3S,4R)-4-(3,4-difluorophenyl)-1-(2-methoxyethyl)pyrrolidin-3-yl)-3-(4-methyl-3-(3-methyl-1,2,4-oxadiazol-5-yl)-1-phenyl-1H-pyrazol-5-yl)urea] | < 0.1
COCCN1C[C@@H](NC(=O)Nc2c(C)c(-c3nc(C(F)(F)F)no3)nn2-c2ccccc2)[C@H](c2ccc(F)c(F)c2)C1 [Example 299, 1-((3S,4R)-4-(3,4-difluorophenyl)-1-(2-methoxyethyl)pyrrolidin-3-yl)-3-(4-methyl-1-phenyl-3-(3-(trifluoromethyl)-1,2,4-oxadiazol-5-yl)-1H-pyrazol-5-yl)urea] | < 0.1
COCCN1C[C@@H](NC(=O)Nc2c(C)c(-c3nc(C(F)(F)F)no3)nn2-c2ccccc2)[C@H](c2ccc(F)cc2)C1 [Example 300, 1-((3S,4R)-4-(4-fluorophenyl)-1-(2-methoxyethyl)pyrrolidin-3-yl)-3-(4-methyl-1-phenyl-3-(3-(trifluoromethyl)-1,2,4-oxadiazol-5-yl)-1H-pyrazol-5-yl)urea] | < 0.1
COCCN1C[C@@H](NC(=O)Nc2c(C)c(-c3cc(C)n(C)n3)nn2-c2ccccc2)[C@H](c2ccc(F)c(F)c2)C1 [Example 305, 1-((3S,4R)-4-(3,4-difluorophenyl)-1-(2-methoxyethyl)pyrrolidin-3-yl)-3-(1′,4,5′-trimethyl-1-phenyl-1H,1′H-[3,3′-bipyrazol]-5-yl)urea] | < 0.1
